Patent US9193722B2, “Tri-cyclic pyrazolopyridine kinase inhibitors” (Vertex Pharmaceuticals Incorporated, priority 2008, dated 2015)

Key:
Type in all cases: biochemical
PKC alpha kinase = PKC alpha kinase (Homo sapiens, UniProt P17252); experiment: PKC alpha kinase inhibition, coupled-enzyme (NADH absorbance) assay, Ki; settings: 130 μM ATP, 4.5 nM PKC alpha kinase, 30° C.
Procedure: (§1) An assay buffer solution was prepared which consisted of 100 mM HEPES (pH 7.5), 10 mM MgCl2, 25 mM NaCl, 0.1 mM EDTA, 100 μM CaCl2 and 0.01% Brij. […] To 16 μL of this enzyme buffer, in a 384 well plate, was added 1 μL of VRT stock solution in DMSO. The mixture was allowed to equilibrate for 10 mins at 30° C. The enzyme reaction was initiated by the addition of 16 μL stock ATP solution prepared in assay buffer to a final assay concentration of 130 μM. Initial rate data was determined from the rate of change of absorbance at 340 nm (corresponding to stoichiometric consumption of NADH) using a Molecular Devices Spectramax plate reader (Sunnyvale, Calif.) over 15 mins at 30° C. […] Ki values were calculated from initial rate data by non-linear regression using the Prism software package (Prism 4.0a, Graphpad Software, San Diego, Calif.).

PKC delta kinase = PKC delta kinase (Homo sapiens, UniProt Q05655); experiment: PKC delta kinase inhibition, coupled-enzyme (NADH absorbance) assay, Ki; settings: 150 μM ATP, 46 nM PKC delta kinase, 30° C.; read-out: Ki PKC delta
Chain of PKC delta kinase (Q05655 whole entry): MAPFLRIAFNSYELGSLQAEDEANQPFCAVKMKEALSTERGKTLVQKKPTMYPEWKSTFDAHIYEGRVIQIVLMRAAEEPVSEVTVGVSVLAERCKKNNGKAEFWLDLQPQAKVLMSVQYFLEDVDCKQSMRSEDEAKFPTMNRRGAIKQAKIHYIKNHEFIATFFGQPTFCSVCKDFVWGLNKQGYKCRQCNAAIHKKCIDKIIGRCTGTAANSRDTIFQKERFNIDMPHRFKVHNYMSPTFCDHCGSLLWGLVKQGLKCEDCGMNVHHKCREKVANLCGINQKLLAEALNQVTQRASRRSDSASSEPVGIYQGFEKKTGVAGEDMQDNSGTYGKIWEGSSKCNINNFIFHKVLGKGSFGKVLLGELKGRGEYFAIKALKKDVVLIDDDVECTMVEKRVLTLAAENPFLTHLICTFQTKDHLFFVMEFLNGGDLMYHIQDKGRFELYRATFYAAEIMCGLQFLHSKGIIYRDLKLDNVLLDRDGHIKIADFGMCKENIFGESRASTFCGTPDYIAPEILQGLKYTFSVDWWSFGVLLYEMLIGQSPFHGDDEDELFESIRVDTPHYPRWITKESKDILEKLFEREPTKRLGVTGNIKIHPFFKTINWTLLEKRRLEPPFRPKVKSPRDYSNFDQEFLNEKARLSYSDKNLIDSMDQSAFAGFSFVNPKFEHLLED
Procedure: as §1, with “EDTA” for “EDTA, 100 μM CaCl2”, “150” for “130”

PKC theta kinase = PKC theta kinase (Homo sapiens, UniProt Q04759); experiment: PKC theta kinase inhibition, coupled-enzyme (NADH absorbance) assay, Ki; settings: 240 μM ATP, 18 nM PKC theta kinase, 30° C.
Chain of PKC theta kinase (Q04759 whole entry): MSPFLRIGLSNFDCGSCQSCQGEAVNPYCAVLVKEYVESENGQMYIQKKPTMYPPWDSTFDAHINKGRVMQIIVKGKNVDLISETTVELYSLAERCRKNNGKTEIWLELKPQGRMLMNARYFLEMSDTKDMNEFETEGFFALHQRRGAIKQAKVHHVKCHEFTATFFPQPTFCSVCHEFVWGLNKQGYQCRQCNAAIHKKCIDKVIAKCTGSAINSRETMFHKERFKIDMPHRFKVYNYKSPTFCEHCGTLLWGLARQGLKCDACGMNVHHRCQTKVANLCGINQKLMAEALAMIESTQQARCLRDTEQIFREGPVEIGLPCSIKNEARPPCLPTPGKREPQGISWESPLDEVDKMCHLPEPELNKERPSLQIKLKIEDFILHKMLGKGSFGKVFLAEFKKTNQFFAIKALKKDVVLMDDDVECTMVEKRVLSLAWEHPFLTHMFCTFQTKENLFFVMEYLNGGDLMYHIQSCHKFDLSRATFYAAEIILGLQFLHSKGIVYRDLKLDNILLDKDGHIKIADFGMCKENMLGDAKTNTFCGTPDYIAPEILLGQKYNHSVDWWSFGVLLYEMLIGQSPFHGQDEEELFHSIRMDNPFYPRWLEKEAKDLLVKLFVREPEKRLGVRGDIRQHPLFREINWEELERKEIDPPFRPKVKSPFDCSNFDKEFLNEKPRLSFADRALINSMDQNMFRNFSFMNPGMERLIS
Procedure: An assay buffer solution was prepared which consisted of 100 mM HEPES (pH 7.5), 10 mM MgCl2, 25 mM NaCl, 0.1 mM EDTA and 0.01% Brij. […] To 60 μL of this enzyme buffer, in a 384 well plate, was added 2 μL of VRT stock solution in DMSO. The mixture was allowed to equilibrate for 10 mins at 30° C. […] Ki values were calculated from initial rate data by non-linear regression using the Prism software package (Prism 4.0a, Graphpad Software, San Diego, Calif.).

| Ki (PKC alpha kinase) [nM] | Ki (PKC delta kinase) [nM] | Ki (PKC theta kinase) [nM] | Compound |
| --- | --- | --- | --- |
| > 1250 | > 1250 | < 500 | CCC(C)(C)C(N)C1CCCN(c2ccc(F)c(-c3n[nH]c4ncccc34)n2)C1 (stereo not shown) [Compound 379] |
| > 1250 | < 2800 | < 50 | CC(C)C(C)(O)C1CN(c2ccc(Cl)c(-c3n[nH]c4ncccc34)n2)CCN1 (stereo not shown) [Compound 437] |
| – | < 2800 | – | CC(C)C(C)(O)C1CN(c2ccc(C(F)(F)F)c(-c3n[nH]c4ncccc34)n2)CCN1 (stereo not shown) [Compound 237] |
| < 500 | < 500 | < 50 | CC(C)C[C@H]1CN(c2ccc(F)c(-c3n[nH]c4ncccc34)n2)CC[C@H]1N [Compound 152] |
| > 1250 | > 1250 | < 500 | C[C@@H]1CN(c2ccc(C(F)(F)F)c(-c3n[nH]c4ncccc34)n2)CCN1 [Compound 117] |
| > 1250 | > 1250 | < 500 | Fc1ccc(N2CCN3CCCC3C2)nc1-c1n[nH]c2ncccc12 (stereo not shown) [Compound 290] |
| < 2800 | < 500 | < 50 | CC(C)C[C@@H]1CN(c2ccc(C(F)(F)F)c(-c3n[nH]c4ncccc34)n2)CC[C@@H]1N [Compound 138] |
| > 1250 | < 500 | < 50 | CC(C)C(C)C1CN(c2ccc(F)c(-c3n[nH]c4ncccc34)n2)CCN1 (stereo not shown) [Compound 238] |
| > 1250 | – | > 700 | CC1(CN)CCN(c2ccc(C(F)(F)F)c(-c3n[nH]c4ncccc34)n2)CC1 [Compound 463] |
| < 2800 | < 50 | < 50 | NC1(C2CCCN(c3ccc(F)c(-c4n[nH]c5ncccc45)n3)C2)CCC1 (stereo not shown) [Compound 324] |
| > 1250 | < 500 | – | CC(C)C[C@H]1CN(c2ccc(F)c(-c3n[nH]c4ncccc34)n2)CCN1 [Compound 112] |
| – | < 500 | < 50 | c1cc(-c2n[nH]c3ncccc23)nc(N2CCCNCC2)c1 [Compound 1] |
| – | < 2800 | < 500 | CC(N)[C@H]1CCCN(c2ccc(F)c(-c3n[nH]c4ncccc34)n2)C1 (stereo partly shown) [Compound 263] |
| – | < 500 | – | CC(C)C(C)(O)C1CN(c2ccc(Cl)c(-c3n[nH]c4ncccc34)n2)CCN1 (stereo not shown) [Compound 438] |
| > 1250 | – | – | C[C@@H]1CN(c2cccc(-c3n[nH]c4ncccc34)n2)CCN1 [Compound 70] |
| < 2800 | – | – | CC(C)C[C@@H]1CN(c2cccc(-c3n[nH]c4ncccc34)n2)CCN1 [Compound 235] |
| > 1250 | < 2800 | – | CC(C)C[C@@H]1CN(c2ccc(F)c(-c3n[nH]c4ncccc34)n2)CCN1 [Compound 192] |
| – | > 1250 | > 700 | CCC(N)C1(C(F)(F)F)CCN(c2ccc(F)c(-c3n[nH]c4ncccc34)n2)C1 (stereo not shown) [Compound 449] |
| – | > 1250 | – | NCC1CN(c2ccc(F)c(-c3n[nH]c4ncccc34)n2)CCC1O (stereo not shown) [Compound 297] |
| > 1250 | – | – | C[C@H]1CN(c2cccc(-c3n[nH]c4ncccc34)n2)CCN1 [Compound 19] |

| Ki (PKC alpha kinase) [nM] | Ki (PKC delta kinase) [nM] | Ki (PKC theta kinase) [nM] | Compound |
| --- | --- | --- | --- |
| > 1250 | – | – | COC[C@H]1CN(c2ccc(F)c(-c3n[nH]c4ncccc34)n2)CCN1 [Compound 185] |
| – | – | > 700 | Fc1ccc(N2CCCC(C3CCCN3)C2)nc1-c1n[nH]c2ncccc12 (stereo not shown) [Compound 315] |
| > 1250 | – | – | COC(C)(C(C)C)C1CN(c2ccc(F)c(-c3n[nH]c4ncccc34)n2)CCN1 (stereo not shown) [Compound 239] |
| > 1250 | < 2800 | – | CC(O)(C1CC1)C1CN(c2ccc(F)c(-c3n[nH]c4ncccc34)n2)CCN1 (stereo not shown) [Compound 273] |
| > 1250 | – | > 700 | CC1(C#N)CCN(c2ccc(C(F)(F)F)c(-c3n[nH]c4ncccc34)n2)CC1 [Compound 415] |
| > 1250 | – | – | CC(C)C(C)(O)C1CN(c2cc(CO)cc(-c3n[nH]c4ncccc34)n2)CCN1 (stereo not shown) [Compound 455] |
| – | – | < 50 | CC(C)C(C)(O)C1CN(c2cccc(-c3n[nH]c4ncccc34)n2)CCN1 (stereo not shown) [Compound 178] |
| – | < 2800 | – | CC(C)(C)CC(N)C1CCCN(c2ccc(F)c(-c3n[nH]c4ncccc34)n2)C1 (stereo not shown) [Compound 318] |
| – | – | > 700 | CC(C)C(O)[C@@H]1CCCN(c2ccc(F)c(-c3n[nH]c4ncccc34)n2)C1 (stereo partly shown) [Compound 279] |
| < 2800 | – | – | CC(C)[C@H]1CN(c2cccc(-c3n[nH]c4ncccc34)n2)CCN1 [Compound 62] |
| > 1250 | > 1250 | – | CC(C)C(C)(O)C1CN(c2ccc(F)c(-c3n[nH]c4ncccc34)n2)CCN1 (stereo not shown) [Compound 200] |
| > 1250 | < 500 | – | CC(O)(C1CC1)C1CN(c2ccc(F)c(-c3n[nH]c4ncccc34)n2)CCN1 (stereo not shown) [Compound 271] |
| > 1250 | < 500 | – | CC(O)(C1CC1)C1CN(c2ccc(F)c(-c3n[nH]c4ncccc34)n2)CCN1 (stereo not shown) [Compound 272] |
| < 500 | – | < 50 | CC(C)CC1CN(c2cncc(-c3n[nH]c4ncccc34)n2)CCC1N (stereo not shown) [Compound 468] |
| < 2800 | – | – | c1cc(-c2n[nH]c3ncccc23)nc(N2CCNCC2)c1 [Compound 9] |
| – | – | < 500 | N#CCCC1CN(c2ccc(C(F)(F)F)c(-c3n[nH]c4ncccc34)n2)CCC1O (stereo not shown) [Compound 460] |
| < 2800 | – | – | c1ccc(C2CN(c3cccc(-c4n[nH]c5ncccc45)n3)CCN2)cc1 (stereo not shown) [Compound 21] |
| < 2800 | < 500 | – | CC(C)C(C)(O)C1CN(c2ccc(F)c(-c3n[nH]c4ncccc34)n2)CCN1 (stereo not shown) [Compound 179] |
| – | – | < 50 | C[C@](O)(c1ccccc1)[C@@H]1CN(c2ccc(F)c(-c3n[nH]c4ncccc34)n2)CCN1 [Compound 276] |
| – | – | < 500 | C#Cc1cnc2[nH]nc(-c3cccc(N4CCCNCC4)n3)c2c1 [Compound 2] |

| Ki (PKC alpha kinase) [nM] | Ki (PKC delta kinase) [nM] | Ki (PKC theta kinase) [nM] | Compound |
| --- | --- | --- | --- |
| – | < 2800 | – | CC(C)(C)C(N)C1CCN(c2ccc(F)c(-c3n[nH]c4ncccc34)n2)C1 (stereo not shown) [Compound 422] |
| > 1250 | < 500 | – | CC(C)C(C)(O)C1CN(c2ccc(F)c(-c3n[nH]c4ncccc34)n2)CCN1 (stereo not shown) [Compound 204] |
| < 500 | – | – | CC(C)C[C@H]1CN(c2cccc(-c3n[nH]c4ncccc34)n2)CC[C@H]1N [Compound 168] |
| > 1250 | – | > 700 | CC(C)CC1(C#N)CCN(c2ccc(F)c(-c3n[nH]c4ncccc34)n2)CC1 [Compound 417] |
| > 1250 | – | < 500 | CCC1CN(c2ccc(C(F)(F)F)c(-c3n[nH]c4ncccc34)n2)CCC1CN (stereo not shown) [Compound 465] |
| < 2800 | – | – | CC[C@@H]1CN(c2cccc(-c3n[nH]c4ncccc34)n2)CCN1 [Compound 67] |
| < 500 | – | – | CC(C)CC1(C)CN(c2ccc(C(F)(F)F)c(-c3n[nH]c4ncccc34)n2)CCC1N (stereo not shown) [Compound 158] |
| > 1250 | – | > 700 | CC1(C#N)CCN(c2ccc(F)c(-c3n[nH]c4ncccc34)n2)CC1 [Compound 416] |
| > 1250 | < 500 | – | CC(C)C(C)(O)C1CN(c2ccc(F)c(-c3n[nH]c4ncccc34)n2)CCN1 (stereo not shown) [Compound 180] |
| – | < 2800 | < 50 | CNC(C1CCCN(c2ccc(F)c(-c3n[nH]c4ncccc34)n2)C1)C(C)(C)C (stereo not shown) [Compound 409] |
| < 2800 | < 500 | – | CC(C)C(C)(O)C1CN(c2ccc(F)c(-c3n[nH]c4ncccc34)n2)CCN1 (stereo not shown) [Compound 201] |
| – | < 500 | < 50 | CC(C)C(C)(O)C1CN(c2ccc(F)c(-c3n[nH]c4ncccc34)n2)CCN1C (stereo not shown) [Compound 231] |
| – | < 500 | < 50 | CC(C)CC1(C)CN(c2ccc(C(F)(F)F)c(-c3n[nH]c4ncccc34)n2)CCC1N (stereo not shown) [Compound 388] |
| – | < 2800 | < 50 | CC(O)(c1ccccc1)C1CN(c2ccc(F)c(-c3n[nH]c4ncccc34)n2)CCN1 (stereo not shown) [Compound 323] |
| > 1250 | > 1250 | – | CC(C)C(C)(O)C1CN(c2ccc(F)c(-c3n[nH]c4ncccc34)n2)CCN1 (stereo not shown) [Compound 205] |
| < 2800 | – | – | CC(C)C[C@H]1CN(c2cccc(-c3n[nH]c4ncccc34)n2)CCN1 [Compound 7, (S)-3-(6-(3-isobutylpiperazin-1-yl)pyridin-2-yl)-1H-pyrazolo[3,4-b]pyridine] |
| > 1250 | > 1250 | – | CC(C)C(C)(O)C1CN(c2ccc(F)c(-c3n[nH]c4ncccc34)n2)CCN1C (stereo not shown) [Compound 229] |
| < 500 | – | – | CC(C)C(C)(O)C1CN(c2cncc(-c3n[nH]c4ncccc34)n2)CCN1 (stereo not shown) [Compound 470] |
| – | > 1250 | – | CCC(CC)C(N)C1CCCN(c2ccc(F)c(-c3n[nH]c4ncccc34)n2)C1 (stereo not shown) [Compound 392] |
